Assay results reported in the NIST ThermoML archive (doi:10.1016/j.fluid.2014.11.020).
Numbers after ± are expanded uncertainties.

Assay: activity coefficient (dimensionless); of the first substance listed, at infinite dilution; xn = mol fraction of the nth substance listed
Settings: Liquid, Chromatography, x1 = 0

SMILES	activity coefficient (323.15 K)	activity coefficient (333.15 K)	activity coefficient (343.15 K)
CCCCCCCCCCC [undecane] + CCCCCCCCn1cc[n+](COCCCOC[n+]2ccn(CCCCCCCC)c2C)c1C.N#C[N-]C#N.N#C[N-]C#N	24.4 ± 1.7	23.4 ± 1.6	22.4 ± 1.5
CCC(C)=O [butanone] + CCCOC[n+]1ccn(Cc2ccccc2)c1.F[B-](F)(F)F	1.06 ± 0.07	0.96 ± 0.06	0.89 ± 0.06
CC(C)O [propan-2-ol] + CCCCCCCCn1cc[n+](COCCC)c1C.O=S(=O)([N-]S(=O)(=O)C(F)(F)F)C(F)(F)F	1.16 ± 0.07	1.05 ± 0.07	0.99 ± 0.06
CCCCCC [hexane] + CCCOC[n+]1ccn(C)c1.O=S(=O)([N-]S(=O)(=O)C(F)(F)F)C(F)(F)F	15.9 ± 1.1	13.3 ± 0.91	–
C#CCCCC [1-hexyne] + CCCCCCCCn1cc[n+](COCCC)c1C.N#C[N-]C#N	1.73 ± 0.12	2.14 ± 0.15	2.01 ± 0.14
Cc1ccccc1C [1,2-dimethylbenzene] + CCCCCCCCn1cc[n+](COCCC)c1C.O=S(=O)([N-]S(=O)(=O)C(F)(F)F)C(F)(F)F	0.94 ± 0.06	0.94 ± 0.06	0.94 ± 0.06
Cc1ccccc1C [1,2-dimethylbenzene] + CCCOC[n+]1ccn(Cc2ccccc2)c1.O=S(=O)([N-]S(=O)(=O)C(F)(F)F)C(F)(F)F	1.58 ± 0.1	1.23 ± 0.08	1.22 ± 0.08
CCC(=O)CC [pentan-3-one] + CCCOC[n+]1ccn(C)c1.N#C[N-]C#N	2.14 ± 0.15	2.19 ± 0.15	2.29 ± 0.16
CCCCCCCCCCC [undecane] + N#C[N-]C#N.N#C[N-]C#N.c1ccc(Cn2cc[n+](COCCCOC[n+]3ccn(Cc4ccccc4)c3)c2)cc1	554 ± 38	508 ± 35	457 ± 31
C=CCCCC [hex-1-ene] + CCCOC[n+]1ccn(Cc2ccccc2)c1.N#C[N-]C#N	15.9 ± 1.1	14.8 ± 1	–
C1COCCO1 [1,4-dioxane] + CCCOC[n+]1ccn(C)c1.O=S(=O)([N-]S(=O)(=O)C(F)(F)F)C(F)(F)F	0.57 ± 0.04	0.57 ± 0.04	0.58 ± 0.04
CCCC(C)=O [pentan-2-one] + CCCOC[n+]1ccn(Cc2ccccc2)c1.F[B-](F)(F)F	1.79 ± 0.12	1.76 ± 0.12	1.82 ± 0.12
ClCCl [dichloromethane] + CCCOC[n+]1ccn(Cc2ccccc2)c1.F[B-](F)(F)F	0.78 ± 0.05	0.78 ± 0.05	0.79 ± 0.05
c1ccccc1 [benzene] + CCCOC[n+]1ccn(Cc2ccccc2)c1.O=S(=O)([N-]S(=O)(=O)C(F)(F)F)C(F)(F)F	0.81 ± 0.05	0.71 ± 0.05	0.71 ± 0.05
CC(C)CO [2-methyl-1-propanol] + CCCOC[n+]1ccc(N(C)C)cc1.O=S(=O)([N-]S(=O)(=O)C(F)(F)F)C(F)(F)F	2.03 ± 0.14	1.92 ± 0.13	1.73 ± 0.12
CCO [ethanol] + CCCCCCCCn1cc[n+](COCCC)c1C.N#C[N-]C#N	0.39 ± 0.03	0.38 ± 0.03	0.38 ± 0.03
CCCCCCCC [octane] + CCCCCCCCn1cc[n+](COCCC)c1C.N#C[N-]C#N	11 ± 0.75	10.1 ± 0.69	9.94 ± 0.68
CCCCCCCCCCC [undecane] + CCCOC[n+]1ccn(Cc2ccccc2)c1.O=S(=O)([N-]S(=O)(=O)C(F)(F)F)C(F)(F)F	41.6 ± 2.9	31 ± 2.1	27.7 ± 1.9
CCCCCCCCCCC [undecane] + CCCCCCCCn1cc[n+](COCCCOC[n+]2ccn(CCCCCCCC)c2C)c1C.O=S(=O)([N-]S(=O)(=O)C(F)(F)F)C(F)(F)F.O=S(=O)([N-]S(=O)(=O)C(F)(F)F)C(F)(F)F	12.4 ± 0.85	11.1 ± 0.76	10.6 ± 0.72
CCCO [propan-1-ol] + CCCOC[n+]1ccn(Cc2ccccc2)c1.F[B-](F)(F)F	2.15 ± 0.15	1.92 ± 0.13	1.78 ± 0.12
CCCCCCCCC [nonane] + CCCOC[n+]1ccc(N(C)C)cc1.O=S(=O)([N-]S(=O)(=O)C(F)(F)F)C(F)(F)F	32.8 ± 2.2	30.6 ± 2.1	27.1 ± 1.9
CC#N [acetonitrile] + CCCCCCCCn1cc[n+](COCCC)c1C.O=S(=O)([N-]S(=O)(=O)C(F)(F)F)C(F)(F)F	0.48 ± 0.04	0.46 ± 0.04	0.47 ± 0.04
C#CCCCCC [1-heptyne] + CCCOC[n+]1ccn(Cc2ccccc2)c1.O=S(=O)([N-]S(=O)(=O)C(F)(F)F)C(F)(F)F	2.82 ± 0.19	2.42 ± 0.16	2.25 ± 0.15
